The text below walks through data of patent US11702409B2, “Pyrazolyl derivatives useful as anti-cancer agents” (NOVARTIS AG, priority 2019, dated 2023).

Structures are written as SMILES. Some results are limits rather than exact numbers.

The assay addresses KRasG12C (M1-K169, biotinylated on the N-terminus) (Homo sapiens (Human), UniProt P01116, G12C). Kind of assay: Covalent competition assay (scintillation proximity assay, competition with radiolabeled covalent probe Compound B). The class given is binding. Conditions: in vitro KRASG12C activity; 10 nM KRasG12C:GDP, 25 nM radio-ligand and 475 nM unlabelled ligand, incubated 2 hours; read-out: Covalent Competition Assay IC50. As to the method:
The cells were lysed by 4 passages through an Avestin Emulsiflex at about 20000 psi and insoluble debris removed by centrifugation and filtered through a 0.45 μm Durapore membrane (Millipore). […] The protein in the flow through was subjected to a final polishing step on a HiLoad 16/60 Superdex 200 prep grade size-exclusion column pre-equilibrated with SEC-buffer (20 mM HEPES pH 7.4, 150 mM NaCl, 5 mM MgCl2, 1 μM GDP).
A scintillation proximity assay (SPA) was used to determine the potency of the compounds. This assay measures the ability of the test compound to compete with the radiolabeled covalent probe for binding to and covalently modify KRASG12C.
A serial dilution of the compounds to be tested is mixed with a fixed concentration of the radiolabeled covalent probe before incubation with KRASG12C:GDP as described below.
The reaction was started by addition of KRasG12C (M1-K169, biotinylated on the N-terminus) to the compounds and incubated for 2 hours with continuous agitation allowing for full modification of KRasG12C with probe or test compounds. […] The assay buffer contained 20 mM Tris-HCl pH 7.5 (Invitrogen), 150 mM NaCl (Sigma Aldrich), 0.1 mM MgCl2 (Sigma Aldrich), and 0.01% Tween-20 (Sigma Aldrich).
Evaluation was carried out using assay data analysis software (such as the standard Novartis in-house Helios software application, Novartis Institutes for BioMedical Research, unpublished) using the methods described in Formenko et al., Robust Regression for high-throughput screening.
Evaluation can also be carried out using commercially available software which is designed to derive IC50 values using 4-parameter fits (e.g. GraphPad Prism, XL fit).
`C=CC(=O)N1CC2(CC(n3nc(-c4ccc5c(cnn5C)c4)c(-c4c(Cl)c(C)cc5[nH]ncc45)c3C)C2)C1` (single isomer, unassigned) [Example 1a]: the IC50 was determined as 17 nM.

Consider `C=CC(=O)N1CC2(CC(n3nc(C4=CCC(F)(F)CC4)c(-c4c(Cl)c(C)cc5[nH]ncc45)c3C)C2)C1` (single isomer, unassigned) [Example 3a], for which the IC50 was found to be 465 nM.

Take `C=CC(=O)N1CC2(CC(n3nc(C4=CCC(F)(F)CC4)c(-c4c(Cl)c(C)cc5[nH]ncc45)c3C)C2)C1` (single isomer, unassigned) [Example 3b]: the IC50 amounted to 1200 nM.

Consider `C=CC(=O)N1CC2(CC(n3nc(-c4ccc(CN5CCCS5(=O)=O)cc4)c(-c4c(Cl)c(C)cc5[nH]ncc45)c3C)C2)C1` (single isomer, unassigned) [Example 5a], for which the IC50 turned out to be 43 nM.

Take `C=CC(=O)N1CC2(CC(n3nc(-c4ccc(CN5CCCS5(=O)=O)cc4)c(-c4c(Cl)c(C)cc5[nH]ncc45)c3C)C2)C1` (single isomer, unassigned) [Example 5b]: the IC50 worked out at 15000 nM.

Turning to `C=CC(=O)N1CC2(CC(n3nc(-c4ccc(=O)n(C)c4)c(-c4c(Cl)c(C)cc5[nH]ncc45)c3C)C2)C1` (single isomer, unassigned) [Example 6a], the concentration for half-maximal inhibition (IC50) was 1200 nM.

For the compound `C=CC(=O)N1CC2(CC(n3nc(-c4ccc(=O)n(C)c4)c(-c4c(Cl)c(C)cc5[nH]ncc45)c3C)C2)C1` (single isomer, unassigned) [Example 6b], the IC50 was over 50000 nM.

Take `C=CC(=O)N1CC2(CC(n3nc(-c4ccc(-n5nccc5N)nc4)c(-c4c(Cl)c(C)cc5[nH]ncc45)c3C)C2)C1` (single isomer, unassigned) [Example 7a]: the IC50 is 162 nM.

For `C=CC(=O)N1CC2(CC(n3nc(-c4ccc(-n5nccc5N)nc4)c(-c4c(Cl)c(C)cc5[nH]ncc45)c3C)C2)C1` (single isomer, unassigned) [Example 7b], the 50% inhibitory concentration (IC50) was over 5000 nM.

For the compound `C=CC(=O)N1CC2(CC(n3nc(-c4cnc5c(ccn5C)c4)c(-c4c(Cl)c(C)cc5[nH]ncc45)c3C)C2)C1` (single isomer, unassigned) [Example 8a], the IC50 worked out at 66 nM.

Take `C=CC(=O)N1CC2(CC(n3nc(-c4cnc5c(ccn5C)c4)c(-c4c(Cl)c(C)cc5[nH]ncc45)c3C)C2)C1` (single isomer, unassigned) [Example 8b]: the 50% inhibitory concentration (IC50) is 2900 nM.

For the compound `C=CC(=O)N1CC2(CC(n3nc(-c4ccnc(C#N)c4)c(-c4c(Cl)c(C)cc5[nH]ncc45)c3C)C2)C1` (single isomer, unassigned) [Example 9a], the IC50 is 743 nM.

For `C=CC(=O)N1CC2(CC(n3nc(-c4ccnc(C#N)c4)c(-c4c(Cl)c(C)cc5[nH]ncc45)c3C)C2)C1` (single isomer, unassigned) [Example 9b], the IC50 is over 50000 nM.

In the case of `C=CC(=O)N1CC2(CC(n3nc(-c4cncc(C#N)c4)c(-c4c(Cl)c(C)cc5[nH]ncc45)c3C)C2)C1` (single isomer, unassigned) [Example 10a], the IC50 is 1200 nM.

Turning to `C=CC(=O)N1CC2(CC(n3nc(-c4cncc(C#N)c4)c(-c4c(Cl)c(C)cc5[nH]ncc45)c3C)C2)C1` (single isomer, unassigned) [Example 10b], the IC50 was over 50000 nM.

`C=CC(=O)N1CC2(CC(n3nc(-c4ccc(C#N)nc4)c(-c4c(Cl)c(C)cc5[nH]ncc45)c3C)C2)C1` (single isomer, unassigned) [Example 11a]: the IC50 turned out to be 973 nM.

Take `C=CC(=O)N1CC2(CC(n3nc(-c4ccc(C#N)nc4)c(-c4c(Cl)c(C)cc5[nH]ncc45)c3C)C2)C1` (single isomer, unassigned) [Example 11b]: the IC50 is over 50000 nM.

For the compound `C=CC(=O)N1CC2(CC(n3nc(-c4ccc5[nH]ncc5c4)c(-c4c(Cl)c(C)cc5[nH]ncc45)c3C)C2)C1` (single isomer, unassigned) [Example 12a], the IC50 came to 24 nM.

As for `C=CC(=O)N1CC2(CC(n3nc(-c4ccc5[nH]ncc5c4)c(-c4c(Cl)c(C)cc5[nH]ncc45)c3C)C2)C1` (single isomer, unassigned) [Example 12b], the IC50 turned out to be 6100 nM.

As for `C=CC(=O)N1CC2(CC(n3nc(-c4ccc(N5CCN(C)C5=O)cc4)c(-c4c(Cl)c(C)cc5[nH]ncc45)c3C)C2)C1` (single isomer, unassigned) [Example 13a], the IC50 worked out at 18 nM.

For `C=CC(=O)N1CC2(CC(n3nc(-c4ccc(N5CCN(C)C5=O)cc4)c(-c4c(Cl)c(C)cc5[nH]ncc45)c3C)C2)C1` (single isomer, unassigned) [Example 13b], the 50% inhibitory concentration (IC50) worked out at 14800 nM.

In the case of `C=CC(=O)N1CC2(CC(n3nc(-c4ccc5c(cnn5CCN(C)C)c4)c(-c4c(Cl)c(C)cc5[nH]ncc45)c3C)C2)C1` (single isomer, unassigned) [Example 15a], the IC50 stood at 16 nM.

On to `C=CC(=O)N1CC2(CC(n3nc(-c4ccc5c(cnn5CCN(C)C)c4)c(-c4c(Cl)c(C)cc5[nH]ncc45)c3C)C2)C1` (single isomer, unassigned) [Example 15b], for which the IC50 stood at 4800 nM.

For the compound `C=CC(=O)N1CC2(CC(n3nc(-c4ccc5nn(CCN(C)C)cc5c4)c(-c4c(Cl)c(C)cc5[nH]ncc45)c3C)C2)C1` (single isomer, unassigned) [Example 16a], the IC50 stood at 11 nM.

Turning to `C=CC(=O)N1CC2(CC(n3nc(-c4ccc5nn(CCN(C)C)cc5c4)c(-c4c(Cl)c(C)cc5[nH]ncc45)c3C)C2)C1` (single isomer, unassigned) [Example 16b], the IC50 stood at 23400 nM.

As for `C=CC(=O)N1CC2(CC(n3nc(-c4ccc5c(cnn5CCN5CCOCC5)c4)c(-c4c(Cl)c(C)cc5[nH]ncc45)c3C)C2)C1` (single isomer, unassigned) [Example 17a], the IC50 worked out at 13 nM.

In the case of `C=CC(=O)N1CC2(CC(n3nc(-c4ccc5c(cnn5CCN5CCOCC5)c4)c(-c4c(Cl)c(C)cc5[nH]ncc45)c3C)C2)C1` (single isomer, unassigned) [Example 17b], the IC50 amounted to 14600 nM.

Consider `C=CC(=O)N1CC2(CC(n3nc(-c4cccnc4)c(-c4c(Cl)ccc5[nH]ncc45)c3C)C2)C1` (single isomer, unassigned) [Example 19a], for which the 50% inhibitory concentration (IC50) stood at 1900 nM.

Turning to `C=CC(=O)N1CC2(CC(n3nc(-c4cccnc4)c(-c4c(Cl)ccc5[nH]ncc45)c3C)C2)C1` (single isomer, unassigned) [Example 19b], the IC50 is over 50000 nM.

`C=CC(=O)N1CC2(CC(n3nc(-c4cnc(N)c(F)c4)c(-c4c(Cl)c(C)cc5[nH]ncc45)c3C)C2)C1` (single isomer, unassigned) [Example 20a]: the 50% inhibitory concentration (IC50) came to 148 nM.

Consider `C=CC(=O)N1CC2(CC(n3nc(-c4cnc(N)c(F)c4)c(-c4c(Cl)c(C)cc5[nH]ncc45)c3C)C2)C1` (single isomer, unassigned) [Example 20b], for which the IC50 stood at 12500 nM.

Take `C=CC(=O)N1CC2(CC(n3nc(-c4ccc5c(c4)CN(C)C(=O)C5)c(-c4c(Cl)c(C)cc5[nH]ncc45)c3C)C2)C1` (single isomer, unassigned) [Example 21a]: the IC50 worked out at 60 nM.

With `C=CC(=O)N1CC2(CC(n3nc(-c4ccc5c(c4)CN(C)C(=O)C5)c(-c4c(Cl)c(C)cc5[nH]ncc45)c3C)C2)C1` (single isomer, unassigned) [Example 21b], the IC50 is 15000 nM.

Turning to `C=CC(=O)N1CC2(CC(n3nc(-c4ccc5c(c4)CCN5C(C)=O)c(-c4c(Cl)c(C)cc5[nH]ncc45)c3C)C2)C1` (single isomer, unassigned) [Example 22a], the IC50 amounted to 23 nM.

For the compound `C=CC(=O)N1CC2(CC(n3nc(-c4ccc5c(c4)CCN5C(C)=O)c(-c4c(Cl)c(C)cc5[nH]ncc45)c3C)C2)C1` (single isomer, unassigned) [Example 22b], the IC50 was over 50000 nM.

For `C=CC(=O)N1CC2(CC(n3nc(-c4ccc5ncnn5c4)c(-c4c(Cl)c(C)cc5[nH]ncc45)c3C)C2)C1` (single isomer, unassigned) [Example 23a], the IC50 was determined as 564 nM.

In the case of `C=CC(=O)N1CC2(CC(n3nc(-c4ccc5ncnn5c4)c(-c4c(Cl)c(C)cc5[nH]ncc45)c3C)C2)C1` (single isomer, unassigned) [Example 23b], the IC50 is 13900 nM.

For the compound `C=CC(=O)N1CC2(CC(n3nc(-c4ccc5c(c4)CC(=O)N5C)c(-c4c(Cl)c(C)cc5[nH]ncc45)c3C)C2)C1` (single isomer, unassigned) [Example 24a], the IC50 came to 71 nM.

In the case of `C=CC(=O)N1CC2(CC(n3nc(-c4ccc5c(c4)CC(=O)N5C)c(-c4c(Cl)c(C)cc5[nH]ncc45)c3C)C2)C1` (single isomer, unassigned) [Example 24b], the IC50 is over 50000 nM.

Regarding `C=CC(=O)N1CC2(CC(n3nc(-c4ccc5cnccc5c4)c(-c4c(Cl)c(C)cc5[nH]ncc45)c3C)C2)C1` (single isomer, unassigned) [Example 25a], the IC50 was found to be 41 nM.

With `C=CC(=O)N1CC2(CC(n3nc(-c4ccc5cnccc5c4)c(-c4c(Cl)c(C)cc5[nH]ncc45)c3C)C2)C1` (single isomer, unassigned) [Example 25b], the IC50 worked out at 7800 nM.
